pIC50: −log10 of the molar value.
Columns and labels:
[1] = target: Neuraminidase (Influenza A virus (A/Puerto Rico/8/1934(H1N1)), UniProt P03468); test: Inhibition of influenza A virus sialidase activity
Neuraminidase [2] = target: T1, Neuraminidase (Influenza B virus (strain B/Lee/1940), UniProt P03474); test: Inhibition of influenza B virus sialidase activity
Neuraminidase [3] = target: T1, Neuraminidase
[4] = target: Neuraminidase (Influenza A virus (A/Puerto Rico/8/1934(H1N1)), UniProt P03468)
[5] = target: Neuraminidase (Influenza A virus (A/Puerto Rico/8/1934(H1N1)), UniProt P03468); test: Inhibition of sialidase (Flu A, 5 nM)
[6] = target: Neuraminidase (Influenza A virus (A/Puerto Rico/8/1934(H1N1)), UniProt P03468); remark: listed apart in the source
[7] = target: Neuraminidase (Influenza A virus (A/Puerto Rico/8/1934(H1N1)), UniProt P03468); remark: listed apart in the source
[8] = target: Neuraminidase (Influenza A virus (A/Puerto Rico/8/1934(H1N1)), UniProt P03468); remark: listed apart in the source
[9] = target: Neuraminidase (Influenza A virus (A/Puerto Rico/8/1934(H1N1)), UniProt P03468); remark: listed apart in the source
Neuraminidase [10] = target: T1, Neuraminidase; remark: listed apart in the source
[11] = t1/2, plasma elimination half life, the time taken for the plasma concentrations to fall by one half, once distribution is complete at a dose of 10 mg/kg; format: ADME, organism-based; set-up: dose 10 mg/kg
Influenza A virus [12] = test: Compound was tested for in vivo efficacy in mouse model of influenza A virus A/Singapore/1/57 at dose of 10 mg/kg. (in); format: functional
Influenza A virus [13] = test: Compound was tested for in vivo efficacy in mouse model of influenza A virus A/Singapore/1/57 at dose of 100 mg/kg. (i.p.); format: functional; conditions: route intraperitoneal
Influenza A virus [14] = test: Compound was tested for concentration of intranasally administered (in) (10 mg/kg) which reduces virus titer by 90%; format: functional; conditions: inhaled or nasal
[15] = Clp, plasma clearance at a dose of 10 mg/kg; format: ADME, organism-based; set-up: dose 10 mg/kg; conditions: read-out: Clp
[16] = Vss, volume of distribution at steady state at a dose of 10 mg/kg; format: ADME, organism-based; set-up: dose 10 mg/kg; conditions: in vivo, read-out: Vss
Mus musculus [17] = test: Compound was tested for in vivo efficacy in mouse model of influenza A virus A/Singapore/1/57 at dose of 0.1 mg/kg.; format: functional
Mus musculus [18] = test: Compound was tested for concentration of intranasally administered drug (1 mg/kg) which reduces virus titer by 90%; format: functional; conditions: inhaled or nasal
Mus musculus [19] = test: Compound was tested for in vivo efficacy in mouse model of influenza A virus A/Singapore/1/57 at dose of 50 mg/kg.; format: functional
Mus musculus [20] = test: Compound was tested for in vivo efficacy in mouse model of influenza A virus A/Singapore/1/57 at dose of 1 mg/kg.; format: functional
Mus musculus [21] = test: Compound was tested for in vivo efficacy in mouse model of influenza A virus A/Singapore/1/57 at dose of 10 mg/kg.; format: functional
Mus musculus [22] = test: Compound was tested for concentration of intranasally administered drug (10 mg/kg) which reduces virus titer by 90%; format: functional; conditions: inhaled or nasal
[23] = Clp, plasma clearance at a dose of 50 mg/kg; format: ADME, organism-based; set-up: dose 50 mg/kg; conditions: read-out: Clp
[24] = t1/2, plasma elimination half life, the time taken for the plasma concentrations to fall by one half, once distribution is complete at a dose of 50 mg/kg; format: ADME, organism-based; set-up: dose 50 mg/kg
[25] = Vss, volume of distribution at steady state at a dose of 50 mg/kg; format: ADME, organism-based; set-up: dose 50 mg/kg; conditions: in vivo, read-out: Vss

T1 sequence (P03474 whole entry): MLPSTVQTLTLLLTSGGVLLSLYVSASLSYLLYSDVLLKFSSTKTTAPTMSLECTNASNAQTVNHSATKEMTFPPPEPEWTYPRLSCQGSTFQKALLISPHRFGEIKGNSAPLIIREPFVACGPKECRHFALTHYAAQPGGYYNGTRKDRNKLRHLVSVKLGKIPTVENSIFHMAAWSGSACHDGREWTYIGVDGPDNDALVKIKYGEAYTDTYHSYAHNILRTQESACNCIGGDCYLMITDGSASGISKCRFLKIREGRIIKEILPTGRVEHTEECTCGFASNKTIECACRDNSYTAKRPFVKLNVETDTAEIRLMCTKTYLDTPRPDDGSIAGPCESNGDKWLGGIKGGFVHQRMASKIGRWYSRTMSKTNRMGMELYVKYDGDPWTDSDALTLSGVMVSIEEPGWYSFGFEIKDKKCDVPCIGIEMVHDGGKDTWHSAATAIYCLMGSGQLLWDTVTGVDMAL
Sequence of Neuraminidase (Influenza A virus (A/Puerto Rico/8/1934(H1N1)), UniProt P03468) (P03468 whole entry): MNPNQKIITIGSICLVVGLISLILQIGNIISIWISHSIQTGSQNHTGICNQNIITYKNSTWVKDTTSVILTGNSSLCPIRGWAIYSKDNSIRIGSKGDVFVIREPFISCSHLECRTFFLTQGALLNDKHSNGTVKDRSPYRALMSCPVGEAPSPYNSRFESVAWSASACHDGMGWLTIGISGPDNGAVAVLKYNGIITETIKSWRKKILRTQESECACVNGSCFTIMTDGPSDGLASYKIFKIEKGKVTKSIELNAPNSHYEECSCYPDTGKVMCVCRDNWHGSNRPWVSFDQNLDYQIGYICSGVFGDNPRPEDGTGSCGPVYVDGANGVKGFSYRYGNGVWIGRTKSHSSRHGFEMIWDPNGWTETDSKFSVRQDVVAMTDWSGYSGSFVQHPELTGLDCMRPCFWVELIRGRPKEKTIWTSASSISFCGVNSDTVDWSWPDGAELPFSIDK

Work on `CCCN(CCCc1ccccc1)C(=O)[C@@H]1OC(C(=O)O)=C[C@H](N)[C@H]1NC(C)=O` yielded a pIC50 [1] of 7.74 and a pIC50 (Neuraminidase [2]) of 4.34.

With `CC(=O)N[C@@H]1[C@@H](N)C=C(C(=O)O)O[C@H]1C(=O)N(CCO)CCc1ccccc1` the pIC50 [1] was 7.92 and the pIC50 (Neuraminidase [2]) was 4.00.

Work on `CC(=O)N[C@@H]1[C@@H](N)C=C(C(=O)O)O[C@H]1C(=O)N(CCc1ccccc1)CC(N)=O` yielded a pIC50 [1] of 4.72 and a pIC50 (Neuraminidase [2]) of 4.51.

`CCCN(Cc1ccccc1)C(=O)[C@@H]1OC(C(=O)O)=C[C@H](N)[C@H]1NC(C)=O` showed a pIC50 [1] of 5.38 and a pIC50 (Neuraminidase [2]) of 3.74.

With `CC(=O)N[C@@H]1[C@@H](N)C=C(C(=O)O)O[C@H]1C(=O)N(CCc1ccccc1)CC(=O)O` the pIC50 [1] was 3.89 and the pIC50 (Neuraminidase [2]) was 4.12.

Compound `CC(=O)N[C@@H]1[C@@H](N)C=C(C(=O)O)O[C@H]1C(=O)N1C(C)CCN1C` (some centres not stated) has a pIC50 (Neuraminidase [3]) of 4.70, a pIC50 [1] of 6.68 and a pIC50 (Neuraminidase [2]) of 4.89. It also gave a pIC50 [4] of 7.28.

`CC(=O)N[C@@H]1[C@@H](N)C=C(C(=O)O)O[C@H]1C(=O)N(CCN)CCc1ccccc1` gave a pIC50 [1] of 4.33 and a pIC50 (Neuraminidase [2]) of 3.59.

In the case of `CCC1CCC(CC)N1C(=O)[C@@H]1OC(C(=O)O)=C[C@H](N)[C@H]1NC(C)=O` (some centres not stated), the pIC50 [1] was 6.54 and the pIC50 (Neuraminidase [2]) was 4.59.

For `CC(=O)N[C@@H]1[C@@H](N)C=C(C(=O)O)O[C@H]1C(=O)N(CCc1ccccc1)CC(C)C`, the pIC50 [1] was 7.85.

Compound `CC(=O)N[C@@H]1[C@@H](N)C=C(C(=O)O)O[C@H]1C(=O)NCCO` has a pIC50 [5] of 3.38.

Compound `CC(=O)N[C@@H]1[C@@H](N)C=C(C(=O)O)O[C@H]1C(=O)N(CCN=[N+]=[N-])CCc1ccccc1` has a pIC50 (Neuraminidase [3]) of 4.55 and a pIC50 [4] of 8.05.

`CCCN(C)C(=O)[C@@H]1OC(C(=O)O)=C[C@H](N)[C@H]1NC(C)=O` gave an IC50 [6] of 3700 nM, an IC50 [7] of 180 nM and a pIC50 [8] of 5.33. It also gave an IC50 [9] of 110 nM.

Work on `CCCN(CCc1cccc(O)c1)C(=O)[C@@H]1OC(C(=O)O)=C[C@H](N)[C@H]1NC(C)=O` yielded a pIC50 [1] of 8.52 and a pIC50 (Neuraminidase [2]) of 5.64.

For `CC(=O)N[C@@H]1[C@@H](N)C=C(C(=O)O)O[C@H]1C(=O)N(CCc1ccccc1)C(C)C`, the pIC50 [1] was 8.10 and the pIC50 (Neuraminidase [2]) was 5.10.

Work on `CCCN(CCc1ccc(O)cc1)C(=O)[C@@H]1OC(C(=O)O)=C[C@H](N)[C@H]1NC(C)=O` yielded a pIC50 [1] of 8.05 and a pIC50 (Neuraminidase [2]) of 5.72.

With `C=CCN(CC=C)C(=O)[C@@H]1OC(C(=O)O)=C[C@H](N)[C@H]1NC(C)=O` the pIC50 [5] was 7.40 and the pIC50 (Neuraminidase [10]) was 5.08.

`CCCN(CCc1cccc(-c2ccccc2)c1)C(=O)[C@@H]1OC(C(=O)O)=C[C@H](N)[C@H]1NC(C)=O` showed a pIC50 [1] of 8.70 and a pIC50 (Neuraminidase [2]) of 5.35.

For `CCCCCCCCCN(CCC)C(=O)[C@@H]1OC(C(=O)O)=C[C@H](N)[C@H]1NC(C)=O`, the half-life [11] was 52.2 min, the “Reduction in virus titer” value (Influenza A virus [12]) was 96% and the “Reduction in virus titer” value (Influenza A virus [13]) was 71%. The ED90 (Influenza A virus [14]) was over 1 mg/kg, the clearance [15] was 17.9 mL/min/kg and the Vd [16] was 1.3 L/kg.

`CCCN(CC)C(=O)[C@@H]1OC(C(=O)O)=C[C@H](N)[C@H]1NC(C)=O` gave a pIC50 (Neuraminidase [2]) of 6.39.

For `CCCN(CCC)C(=O)[C@@H]1OC(C(=O)O)=C[C@H](NC(=N)N)[C@H]1NC(C)=O`, the half-life [11] was 22.2 min, the “Reduction in virus titer” value (Mus musculus [17]) was 99.3% and the ED90 (Mus musculus [18]) was under 0.01 mg/kg. For the same compound, the “Reduction in virus titer” value (Mus musculus [19]) was 86%, the “Reduction in virus titer” value (Mus musculus [20]) was 99.93% and the clearance [15] was 6 mL/min/kg. It also gave a Vd [16] of 0.5 L/kg.

With `CCCN(CCC)C(=O)[C@@H]1OC(C(=O)O)=C[C@H](N)[C@H]1NC(C)=O` the “Reduction in virus titer” value (Mus musculus [21]) was 99.84%, the ED90 (Mus musculus [22]) was 2.1 mg/kg and the IC50 [6] was 8 nM. For the same compound, the IC50 [7] was 3 nM, the clearance [23] was 12.5 mL/min/kg and the pIC50 [8] was 7.52. The IC50 [9] was 20 nM, the half-life [24] was 21 min and the “Reduction in virus titer” value (Mus musculus [20]) was 82%. The Vd [25] was 0.4 L/kg.

`CCCN(CCc1ccc(Cc2ccccc2)cc1)C(=O)[C@@H]1OC(C(=O)O)=C[C@H](N)[C@H]1NC(C)=O` showed a pIC50 [1] of 6.57 and a pIC50 (Neuraminidase [2]) of 5.28.

From ChEMBL document CHEMBL1131488, “Dihydropyrancarboxamides related to zanamivir: a new series of inhibitors of influenza virus sialidases. 1. Discovery, synthesis, biological activity, and structure-activity relationships of 4-guanidino- and 4-amino-4H-pyran-6-carboxamides” (J Med Chem, 1998)
